# Data taken from US11162071B2, “Compositions and methods for generating hair cells by upregulating JAG-1” (Frequency Therapeutics, Inc., priority 2018, dated 2021).
# “Also recorded” adds a separate entry of the source.
# How the values were obtained:
# [1] = test system: cochlear Lgr5 progenitor cells; assay: Expansion and enrichment of Lgr5-GFP cochlear progenitor cells in 3D culture (Lgr5+ assay); type: cell-based, mouse
# Source text: “Stem Cell Proliferation Assay” as used herein is an assay to determine the capacity for agent(s) to induce the creation of stem cells from a starting cell population. In an exemplary Stem Cell Proliferation Assay, the number of cells for an initial cell population is harvested from a Lgr5-GFP mouse such as a B6.129P2-Lgr5tm1(cre/ERT2)Cle/J mouse (also known as Lgr5-EGFP-IRES-creERT2 or Lgr5-GFP mouse, Jackson Lab Stock No: 008875) between the age of 0 to 5 days, by isolating the organ of Corti sensory epithelium and dissociating the epithelium into single cells. Approximately 5000 cells are entrapped in 40 μl of culture substrate (for example: Matrigel (Corning, Growth Factor Reduced)) and placed at the center of wells in a 24-well plate with 500 μl of an appropriate culture media, growth factors and agent being tested. Appropriate culture media and growth factors include Advanced DMEM/F12 with media Supplements (1×N2, 1× B27, 2 mM Glutamax, 10 mM HEPES, 1 mM N-acetylcysteine, and 100 U/ml Penicillin/100 μg/ml Streptomycin) and growth factors (50 ng/ml EGF, 50 ng/ml bFGF, and 50 ng/ml IGF-1) as well as the agent(s) being assessed are added into each well. Cells are cultured for 10 days in a standard cell culture incubator at 37° C. and 5% CO2, with media change every 2 days. The number of Lgr5+ cells is quantified by counting the number of cells identified as Lgr5+ in an In Vitro Lgr5 activity assay. The fraction of cells that are Lgr5+ is quantified by dividing the number of cells identified as Lgr5+ in a cell population by the total number of cells present in the cell population. The number of hair cells in a population may be measured by staining with hair cell marker (e.g., Myosin VIIa), or using an endogenous reporter of hair cell genes (e.g., Pou4f3-GFP, Atoh1-nGFP) and analyzing using flow cytometry. The fraction of cells that are hair cells is quantified by dividing the number of cells identified as hair cells in a cell population by the total number of cells present in the cell population. Gene and/or protein expression and/or activity is measured in this assay using methods known in the art such as by PCR, Nanostring, immunostaining, RNAseq, RNA hybridization, or Western blot analysis.
# Neonatal Lgr5-EGFP-IRES-Cre-ER mice (The Jackson Laboratory, strain 8875) were used to analyze the effects of small molecules on cochlear stem cell expansion (see Barker et al., Nature 449, 1003-7 (2007). This strain allowed for visualization and quantification of EGFP cells.
# All animal studies were conducted under an approved institutional protocol per National Institutes of Health guidelines. Using neonatal animals, cochleae were dissected and the organ of Corti (sensory epithelium) was separated from the stria vascularis (ion transport epithelium) and the modiolus (nerve tissue). Epithelia were then collected and treated with TrypLE for 15-20 minutes to obtain single cells. The cells were then filtered ([…]) and suspended in a Matrigel (Corning) dome for 3D culture seeded at 0.5 cochlea per well.
# Expansion of Lgr5 Cells: Cells were cultured in a 3D system and bathed in a serum free 1:1 mixture of DMEM and F12, supplemented with Glutamax (GIBCO), N2, B27 (Invitrogen), EGF (50 ng/mL; Chemicon), bFGF (50 ng/mL; Chemicon), IGF-1 (50 ng/mL; Chemicon), and small molecules for seven days. Media was changed every other day. Treatments were run in triplicate or quadruplicate.
# Lgr5 cells were quantified after 7-10 days. Cell colonies were dissociated into single cells using TrypLE. The cells were then stained with propidium iodide (PI) and analyzed using a flow cytometer to count Lgr5-EGFP cells. The percentage of viable Lgr5 cells was plotted against the concentration in GraphPad Prism.
# Organ of Corti are dissected from Lgr5 GFP+ mice and dissociated as single cells as described above. Background media contains the same supplements and growth factors at the same concentrations as described above. […]
# HDAC [2] = conditions: Table 6, cited from earlier work; for Class selectivity: HDAC class
# Jag-1 [3] = assay: Jag-1 expression in cultured Lgr5+ cells, Western blot band intensity normalized to GAPDH; type: cell-based, mouse
# Protocol: Calculated Jag-1 normalized to GAPDH using GelQuant software and bands quantified. Net volumes of Jag-1 bands were divided by net volume values of matched GAPDH bands. These values were normalized to vehicle in a background of growth factors including: 50 ng/mL EGF (E), 50 ng/mL bFGF (F), and 50 ng/mL IGF1 (I).
# Cultures contained a background of growth factors including: 50 ng/mL EGF (E), 50 ng/mL bFGF (F), and 50 ng/mL IGF1 (I).
# Calculated Jag-1 normalized to GAPDH using GelQuant software and bands quantified. Net volumes of Jag-1 bands were divided by net volume values of matched GAPDH bands. These values were normalized to vehicle.
# Jag-1 [4] = assay: Jag-1 upregulation/expression in cultured Lgr5+ cells (qPCR); type: cell-based, mouse; conditions: for Jag-1 upregulation: EFI background (FIG. 3)
# GSK-3 alpha [5] = biological target: GSK-3 alpha (Homo sapiens, UniProt P49840); conditions: Table 3; cited from earlier work
# GSK-3 alpha [6] = biological target: GSK-3 alpha (Homo sapiens, UniProt P49841); conditions: GSK-3 alpha of Table 3; cited from earlier work
# HDAC [7] = assay: HDAC inhibition in Lgr5 cell culture (FIG. 5); type: cell-based; conditions: with and without CHIR; EFI background (FIG. 5)
# [8] = 1,4-DPCA 370 nM with CHIR 4 μM + VPA 1 mM, versus CHIR+VPA, EFI background
# [9] = AS1842856 425 nM alone, EFI background
# [10] = AS1842856 concentration series, EFI background (FIG. 7)
# [11] = control compounds CHIR99021 4 μM and Valproic Acid 1 mM, EFI background
# [12] = SF1670 0.1 μM added to CHIR, versus CHIR, EFI background
# [13] = daprodustat 1.11 μM with CHIR 4 μM + VPA 1 mM, versus CHIR and CHIR+VPA, EFI background
# [14] = VO-Ohpic 3 μM added to CHIR, versus CHIR, EFI background
# GSK-3 alpha (Homo sapiens, UniProt P49840), sequence (P49840 whole entry): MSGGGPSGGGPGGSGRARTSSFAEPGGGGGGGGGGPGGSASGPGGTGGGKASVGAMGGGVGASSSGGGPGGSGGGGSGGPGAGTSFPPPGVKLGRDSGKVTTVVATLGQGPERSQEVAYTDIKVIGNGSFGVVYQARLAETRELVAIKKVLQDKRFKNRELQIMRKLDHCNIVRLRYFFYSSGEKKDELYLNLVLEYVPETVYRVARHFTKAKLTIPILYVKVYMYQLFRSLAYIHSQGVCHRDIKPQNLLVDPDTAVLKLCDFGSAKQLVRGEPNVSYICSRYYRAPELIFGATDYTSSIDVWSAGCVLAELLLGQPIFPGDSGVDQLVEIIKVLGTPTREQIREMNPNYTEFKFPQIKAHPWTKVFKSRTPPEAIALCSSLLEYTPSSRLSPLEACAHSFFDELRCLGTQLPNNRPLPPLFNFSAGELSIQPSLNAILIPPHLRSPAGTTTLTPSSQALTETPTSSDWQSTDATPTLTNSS
# GSK-3 alpha (Homo sapiens, UniProt P49841), sequence (P49841 whole entry): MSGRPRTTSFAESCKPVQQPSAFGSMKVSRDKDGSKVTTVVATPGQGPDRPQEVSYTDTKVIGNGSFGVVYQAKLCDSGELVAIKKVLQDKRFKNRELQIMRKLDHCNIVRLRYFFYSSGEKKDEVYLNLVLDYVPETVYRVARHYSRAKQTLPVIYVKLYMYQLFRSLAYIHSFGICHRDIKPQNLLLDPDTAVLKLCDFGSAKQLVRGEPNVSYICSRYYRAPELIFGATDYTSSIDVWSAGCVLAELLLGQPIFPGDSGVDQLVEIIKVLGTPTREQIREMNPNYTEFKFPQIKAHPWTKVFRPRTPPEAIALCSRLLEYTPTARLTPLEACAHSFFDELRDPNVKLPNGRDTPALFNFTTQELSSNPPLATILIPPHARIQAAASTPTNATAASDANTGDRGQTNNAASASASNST
molecule,measurement,setting,value
"O=C(O)c1c[nH]c2c(ccc3cccnc32)c1=O [1,4-DPCA, 4,4α-dihydro-4-oxo-1,10-phenanthroline-3-carboxylic acid]",Lgr5 GFP+ progenitor cell proliferation,[1]; [8],enhances Lgr5 GFP+ progenitor cell proliferation
same,enrichment of Lgr5 GFP+ progenitor cells,[1]; [8],shows a trend for enrichment; also recorded: enhances Lgr5 GFP+ progenitor cell proliferation and enrichment
same,enrichment of Lgr5 GFP+ cochlear progenitor cells,"[1]; agent alone, EFI background",does not enrich; also recorded: does not proliferate or enrich
same,proliferation of Lgr5 GFP+ cochlear progenitor cells,"[1]; agent alone, EFI background",does not proliferate
C#CCC(CCCCCC)C(=O)O (centres unmarked) [2-hexyl-4-pentynoic acid],Class selectivity,HDAC [2],Class I
same,HDAC Potenc,HDAC [2],13 µM
CCn1cc(C(=O)O)c(=O)c2c(N)c(F)c(NC3CCCCC3)cc21 [AS1842856],Jag-1 expression,Jag-1 [3]; [9],upregulates Jag-1 expression
same,Jag-1 expression,"Jag-1 [4]; qPCR, AS1842856 425 nM alone, EFI background",upregulates Jag-1 expression
same,expansion of cochlear Lgr5+ progenitor cells,[1]; [9],elicits the expansion
same,enrichment of Lgr5 cells (percentage),"[1]; AS1842856 425 nM combined with VPA 1 mM, EFI background",enriched
same,LGR5+ cell growth (Lgr5 GFP(+) Cell Count),[1]; [10],concentration-dependent effects; also recorded: enhances expansion of cochlear progenitor cells concentration-dependent manner
same,enrichment (Lgr5 GFP (%)),[1]; [10],concentration-dependent effects
same,Lgr5-GFP colony formation,"[1]; images, AS1842856 425 nM, EFI background",promotes Lgr5-GFP colony formation
N#Cc1ccc2[nH]c(O)c(-c3ccc(CN4CCOCC4)cn3)c2c1 [AZD 1080],GSK-3 alpha,GSK-3 alpha [5],6.9 nM
Cc1c[nH]c(-c2cnc(NCCNc3ccc(C#N)cn3)nc2-c2ccc(Cl)cc2Cl)n1 [CHIR99021],Jag-1 upregulation,Jag-1 [4]; agent alone,upregulated Jag-1
same,enrichment (percent LGR5-GFP(+) cell) of cochlear Lgr5 progenitor cells,"[1]; CHIR alone, EFI background",elicits
same,expansion (LGR5-GFP(+) cell count) of cochlear Lgr5 progenitor cells,"[1]; CHIR alone, background 50 ng/mL EGF, bFGF, IGF1 (EFI)",elicits the expansion
same,enrichment of Lgr5 GFP+ cochlear progenitor cells,[1]; [11],enrich
"O=C(O)CNC(=O)c1nc(Cl)c2ccccc2c1O [FG-2216, N-[(1-chloro-4-hydroxy-3-isoquinolinyl)carbonyl]-glycine]",Lgr5 GFP+ progenitor cell proliferation,"[1]; FG-2216 30 μM with CHIR 4 μM + VPA 1 mM, versus CHIR and CHIR+VPA, EFI background",proliferates Lgr5 GFP+ progenitor cell similarly
same,enrichment of Lgr5 GFP+ progenitor cells,"[1]; FG-2216 30 μM with CHIR 4 μM + VPA 1 mM, versus CHIR+VPA, EFI background",shows a trend for enhanced enrichment
same,Lgr5 GFP+ progenitor cell proliferation,"[1]; FG-2216 30 μM with CHIR 4 μM, versus CHIR and CHIR+VPA 1 mM, EFI background",enhances Lgr5 GFP+ progenitor cell proliferation
same,enrichment of Lgr5 GFP+ progenitor cells,"[1]; FG-2216 30 μM with CHIR 4 μM, versus CHIR+VPA 1 mM, EFI background",enhances enrichment; also recorded: enriches Lgr5 GFP+ progenitor cell enrichment
same,enrichment of Lgr5 GFP+ cochlear progenitor cells,"[1]; agent alone, EFI background",does not enrich; also recorded: does not proliferate or enrich
same,proliferation of Lgr5 GFP+ cochlear progenitor cells,"[1]; agent alone, EFI background",does not proliferate
Cc1ccc(C(=O)Nc2c[nH]nc2C(=O)NCCCOC(C)C)cn1 [GSK XXII],GSK-3 alpha,GSK-3 alpha [5],2.3 nM
same,Lgr5+ Assay,"[1]; concentration range in Lgr5+ assay, Table 3",0.2 to 1 µM
"O=C1NC(=O)C(c2cnc3ccccn23)=C1c1cn2c3c(cc(F)cc13)CN(C(=O)N1CCCCC1)CC2 [LY2090314, 3-(9-fluoro-2-(piperidine-1-carbonyl)-1,2,3,4-tetrahydro-[1,4]diazepino[6,7,1-hi]indol-7-yl)-4-(imidazo[1,2-a]pyridin-3-yl)-1H-pyrrole-2,5-dione]",GSK-3 alpha,GSK-3 alpha [6],0.9 nM
same,GSK-3 alpha,GSK-3 alpha [5],2.1 nM
CC(C)(C)C(=O)Nc1ccc2c(c1)C(=O)C(=O)c1ccccc1-2 [SF1670],enrichment (percent LGR5-GFP(+) cell) of cochlear Lgr5 progenitor cells,[1]; [12],further enhanced
same,expansion (LGR5-GFP(+) cell count) of cochlear Lgr5 progenitor cells,[1]; [12],further enhanced
CCCC(CCC)C(=O)[O-].[Na+] [Sodium Valproate],Jag-1 upregulation,"Jag-1 [3]; AS1842856 425 nM plus VPA 1 mM, versus AS1842856 alone",enhanced the effects of 425 nM AS1842856 on Jag-1 upregulation
same,Class selectivity,HDAC [2],Class I
same,HDAC Potenc,HDAC [2],39 to 161 µM
same,HDAC inhibition,HDAC [7],concentration dependent increase in HDAC inhibition
same,enrichment of Lgr5 GFP+ cochlear progenitor cells,[1]; [11],enrich
"O=C(O)CNC(=O)C1C(=O)N(C2CCCCC2)C(=O)N(C2CCCCC2)C1=O [daprodustat, N-[(1,3-dicyclohexylhexahydro-2,4,6-trioxo-5-pyrimidinyl)carbonyl]-glycine]",enrichment of Lgr5 GFP+ cochlear progenitor cells,"[1]; agent alone, EFI background",does not enrich; also recorded: does not proliferate or enrich
same,proliferation of Lgr5 GFP+ cochlear progenitor cells,"[1]; agent alone, EFI background",does not proliferate
same,Lgr5 GFP+ progenitor cell proliferation,[1]; [13],does not enhance Lgr5 GFP+ progenitor cell proliferation
same,enrichment of Lgr5 GFP+ progenitor cells,[1]; [13],enhances enrichment
"Jag-1 peptide: soluble Jag-1 peptide (residues 188-204), CDDYYYGFGCNKFCRPR (SEQ ID NO:1) (listed as Homo sapiens)",Lgr5+ cell proliferation,"[1]; 0.25 μM Jag-1 peptide added to 4 μM CHIR, EFI background",able to recapitulate enhancement of Lgr5+ cell proliferation; also recorded: enhances CHIR induced Lgr5+ cell proliferation
Na phenylbutyrate,Class selectivity,HDAC [2],Class I >
same,HDAC Potenc,HDAC [2],9 to 16 µM
VO-Ohpic,HDAC inhibition,HDAC [7],does not elicit a detectable increase in HDAC inhibition
same,Jag-1 upregulation,"Jag-1 [4]; VO-Ohpic 3 μM added to CHIR, versus CHIR",enhanced; also recorded: synergistically enhances Jag-1 upregulation
same,Jag-1 upregulation,"Jag-1 [4]; agent alone, listed as VO",does not upregulate Jag-1
same,enrichment (percent LGR5-GFP(+) cell) of cochlear Lgr5 progenitor cells,[1]; [14],enhanced
same,expansion (LGR5-GFP(+) cell count) of cochlear Lgr5 progenitor cells,[1]; [14],enhanced
